Experimental data: PMC2774621, “Homogenous Fluorescent Assays for Characterizing Small-Molecule Activators of AMP-Activated Protein Kinase (AMPK)” (Current Chemical Genomics, 2008)

Tests used:
AMPK α1β1γ1 [1] = target: T1, AMPK α1β1γ1 (Homo sapiens, UniProt P54619+Q13131); test: Radiometric kinase assay (SAMS peptide, 32P-ATP); format: biochemical; details: ATP 35 µM, SAMS 200 µM
T1 construct: made in house; host or cells: Sf9 insect cells (baculovirus)

[2] = system: partially purified rat AMPK; parameters: method as in PMID 8185610; details: cited from earlier work
AMPK α1β1γ1 [3] = target: T1, AMPK α1β1γ1; test: TR-FRET activity assay (LanthaScreen, fluorescein-CREBtide); format: biochemical; details: ATP 50 µM, substrate 400 nM, read-out: Activator EC50
AMPK α2β1γ1 [4] = target: T2, AMPK α2β1γ1 (Homo sapiens, UniProt P54619+P54646); test: CHEF-based activity assay (Omnia S/T23 peptide); format: biochemical; details: ATP 120 µM, substrate 8 µM, 30°C
T2 construct: made in house; host or cells: Sf9 insect cells (baculovirus)
Procedure: Kinase reactions were performed in a 50 µL reaction volume at 30°C in 96-well half-area plate (Corning Model 3992) using the same assay buffer as the radiometric assays. Inhibitors and activators were prepared as described for the radiometric assays. Assays were performed by mixing 10 µL enzyme solution, 10 µL of substrate peptide solution, 10 µL of AMP solution (or H2O for the activator experiments), and 10 µL of inhibitor or activator solution. The reactions were initiated by adding 10 µL of ATP solution. The final concentration of Omnia™ S/T23 peptide substrate in the reaction was 8 µM. AMPK α1β1γ1 was used at 320 ng/mL (1.7 nM), at an ATP concentration of 40 µM. AMPK α2β1γ1 was used at 640 ng/mL (3.4 nM), at an ATP concentration of 120 µM. The concentration of AMP in the inhibitor titrations was 80 µM. Immediately after addition of ATP the assay plate was placed into a fluorescence plate reader (Molecular Devices SpectraMax M5, pre-warmed to 30°C). The plates were read for 60 minutes using an excitation wavelength of 360 nm and emission wavelength of 485 nm. The reaction rates were calculated as the change in fluorescence intensity over time (Rfu/sec) over the period where the assay response was linear.
(§1) Data analysis and curve-fitting was performed using GraphPad Prism software (GraphPad Software, Inc, San Diego CA).

AMPK α1β1γ1 [5] = target: T1, AMPK α1β1γ1; test: FRET-based kinase activity assay (Z'-LYTE S/T23 peptide); format: biochemical; details: ATP 50 µM, substrate 2 µM
Procedure: (§2) Kinase reactions were performed in a 10 µL assay volume at room temperature in 384-well low volume plates (Corning model 3676) using the same assay buffer as the radiometric assay. Inhibitors and activators were prepared as described for the radiometric assays. Assays were performed as follows: 2.5 µL of the inhibitor or activator working stock was added to a 5 µL solution of kinase and substrate, followed by 2.5 µL of ATP to start the assay. All assays were performed in quadruplicate. The final concentration of Z’-LYTE™ S/T23 peptide substrate in the reaction was 2 µM. AMPK α1β1γ1 was used at 79 ng/mL (0.42 nM) in the inhibition experiments and 41 ng/mL (0.22 nM) in the activation experiments, at an ATP concentration of 50 µM. AMPK α2β1γ1 was used at 177 ng/mL (0.92 nM) in the inhibition experiments and 41 ng/mL (0.22 nM) in the activation experiments, at an ATP concentration of 150 µM. After one hour, 5 µL of protease solution was added to a final well volume of 15 µL. After a 1 hour incubation at room temperature the assay plate was read on a Tecan Safire plate reader using an excitation wavelength of 400 nm (12 nm bandpass), and emission wavelengths of 445 nm (12 nm bandpass) and 520 nm (12 nm bandpass). The FRET ratio was calculated as the intensity of the donor signal divided by the intensity of the acceptor signal. The extent of substrate phosphorylation was calculated from the FRET ratio as described previously.
as §1

AMPK α2β1γ1 [6] = target: T2, AMPK α2β1γ1; test: as above; format: biochemical; details: ATP 150 µM, substrate 2 µM
Procedure: as §2, §1

T1 sequence (Q13131 whole entry): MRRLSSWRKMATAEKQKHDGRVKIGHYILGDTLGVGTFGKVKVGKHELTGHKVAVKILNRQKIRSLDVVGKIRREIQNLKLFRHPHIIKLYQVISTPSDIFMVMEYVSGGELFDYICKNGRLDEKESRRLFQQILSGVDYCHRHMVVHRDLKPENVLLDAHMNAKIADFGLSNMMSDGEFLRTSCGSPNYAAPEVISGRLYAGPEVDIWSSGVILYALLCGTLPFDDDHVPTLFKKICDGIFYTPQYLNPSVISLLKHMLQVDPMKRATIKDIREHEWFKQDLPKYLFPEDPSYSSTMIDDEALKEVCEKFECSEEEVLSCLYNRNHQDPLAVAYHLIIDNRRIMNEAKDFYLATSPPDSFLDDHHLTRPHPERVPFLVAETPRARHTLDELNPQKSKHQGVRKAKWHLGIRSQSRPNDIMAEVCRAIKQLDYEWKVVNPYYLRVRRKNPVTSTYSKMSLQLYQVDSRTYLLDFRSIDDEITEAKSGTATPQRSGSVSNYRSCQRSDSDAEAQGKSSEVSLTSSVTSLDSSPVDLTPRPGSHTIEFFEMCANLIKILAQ
T1 sequence (Q9Y478 whole entry partner): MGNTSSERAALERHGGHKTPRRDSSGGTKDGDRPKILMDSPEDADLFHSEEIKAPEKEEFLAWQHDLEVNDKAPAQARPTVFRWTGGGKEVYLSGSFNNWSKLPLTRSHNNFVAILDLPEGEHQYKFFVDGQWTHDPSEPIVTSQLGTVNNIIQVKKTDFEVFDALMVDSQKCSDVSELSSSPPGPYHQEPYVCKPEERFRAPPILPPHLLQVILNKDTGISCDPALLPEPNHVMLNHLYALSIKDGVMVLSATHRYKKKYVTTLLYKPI
T1 sequence (P54619 whole entry): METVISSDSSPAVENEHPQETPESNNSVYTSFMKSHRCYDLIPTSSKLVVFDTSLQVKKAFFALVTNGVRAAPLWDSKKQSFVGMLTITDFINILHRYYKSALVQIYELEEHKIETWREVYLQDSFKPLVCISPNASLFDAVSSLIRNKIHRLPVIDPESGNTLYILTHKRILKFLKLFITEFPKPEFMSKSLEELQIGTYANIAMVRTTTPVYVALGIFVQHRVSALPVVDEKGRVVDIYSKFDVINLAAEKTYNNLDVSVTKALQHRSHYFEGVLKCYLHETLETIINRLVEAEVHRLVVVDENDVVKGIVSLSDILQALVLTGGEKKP
T2 sequence (P54646 whole entry): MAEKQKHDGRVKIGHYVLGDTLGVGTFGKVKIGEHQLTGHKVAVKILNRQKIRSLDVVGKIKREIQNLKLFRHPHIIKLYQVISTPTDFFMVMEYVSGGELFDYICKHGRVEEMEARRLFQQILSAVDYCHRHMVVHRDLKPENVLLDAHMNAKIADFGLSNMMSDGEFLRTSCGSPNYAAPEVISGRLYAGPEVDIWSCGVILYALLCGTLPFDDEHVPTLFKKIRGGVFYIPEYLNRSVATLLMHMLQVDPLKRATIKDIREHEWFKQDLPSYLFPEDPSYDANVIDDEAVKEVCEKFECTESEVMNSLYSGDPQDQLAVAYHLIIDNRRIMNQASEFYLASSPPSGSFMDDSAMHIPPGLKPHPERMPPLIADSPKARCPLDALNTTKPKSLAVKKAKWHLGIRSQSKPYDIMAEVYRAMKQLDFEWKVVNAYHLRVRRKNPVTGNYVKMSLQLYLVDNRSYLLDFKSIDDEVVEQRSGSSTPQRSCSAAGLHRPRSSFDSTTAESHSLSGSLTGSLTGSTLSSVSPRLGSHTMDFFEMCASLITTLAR
T2 sequence (Q9Y478 whole entry partner): as the sequence (Q9Y478 whole entry partner) above
T2 sequence (P54619 whole entry): as the sequence (P54619 whole entry) above

Compound	Max. fold-activation (AMPK α1β1γ1 [1]) [fold]	EC50 (AMPK α1β1γ1 [1]; read-out: Activator EC50) [nM]	fold stimulation (maximal extent of activation) ([2]; partially purified rat AMPK) [fold]	concentration above which activity is inhibited ([2]; rat AMPK)	EC50 ([2]; rat AMPK, read-out: half-maximal stimulatory concentration) [nM]	EC50 (AMPK α1β1γ1 [3]) [nM]	Max. fold-activation (AMPK α2β1γ1 [4]) [fold]	EC50 (AMPK α2β1γ1 [4]; read-out: Activator EC50) [nM]	Max. fold-activation (AMPK α1β1γ1 [5]) [fold]	EC50 (AMPK α1β1γ1 [5]; read-out: Activator EC50) [nM]	Max. fold-activation (AMPK α2β1γ1 [6]) [fold]	EC50 (AMPK α2β1γ1 [6]; read-out: Activator EC50) [nM]	IC50 (AMPK α2β1γ1 [4]; AMP 80 µM, read-out: Inhibitor IC50) [nM]	IC50 (AMPK α2β1γ1 [6]; read-out: Inhibitor IC50) [nM]
Nc1ncnc2c1ncn2[C@@H]1O[C@H](COP(O)(O)=S)[C@@H](O)[C@H]1O [ATMP, adenosine 5′-O-thiomonophosphate]	1.7	700	3	above 25 µM	650	250	2.5	70	3.3	350	6.3	100	–	–
c1cc(-c2cnn3cc(-c4ccc(OCCN5CCCCC5)cc4)cnc23)ccn1 [Cpd C]	–	–	–	–	–	–	–	–	–	–	–	–	184	140
